“Also recorded” adds a separate entry of the source.
Tested on: Tn5 transposase enzyme bound to tagmented DNA (tagmented DNA complex), Mg^2+ cofactor
Assay: Removal of Tn5 transposase from tagmented DNA complex after tagmentation with Mg2+ cofactor (library yield and insert size profile after PCR)
Text: As such Mg^2+ was the divalent cation cofactor.
In the workflow for experiment A: DNA was first tagmented, appending the transferred strand of the adaptor to the 5′ ends of the tagmented DNA, and then treated with water (not sodium dodecyl sulfate (SDS)), thus keeping the Tn5 bound to the tagmented DNA. The tagmented DNA complex was washed and subjected to PCR (including high temperature heating which may dissociate the Tn5) to append adaptor sequences to the 3′ ends of the tagmented DNA.
In the workflow for experiment, B: DNA was first tagmented, appending the transferred strand of the adaptor to the 5′ ends of the tagmented DNA, and then was treated with SDS to denature the Tn5 enzyme, thus dissociating it from the tagmented DNA complex. The SDS was washed away and the tagmented DNA fragments were exposed to PCR to append adaptor sequences to the 3′ ends of the tagmented DNA.
Some of the supernatant was analyzed using a TapeStation. The size profile and yield of the tagmented DNA fragments from experiments A and B were measured using the TapeStation.
As such, Mg^2+ was the divalent cation cofactor.
In the workflow for experiment A: DNA was first tagmented, appending the transferred strand of the adaptor to the 5′ ends of the tagmented DNA. Tn5 was removed by adding 1% SDS and incubating for 5 minutes at 25° C.
In the workflow for experiment B: DNA was first tagmented, appending the transferred strand of the adaptor to the 5′ ends of the tagmented DNA. […] In experiment B, the transposase removal fluid included 100 mM Tris-HCl, pH 8.6, 100 mM NaCl, and 0.6 mM EDTA.
In the workflow for experiments A and B: DNA was first tagmented, appending the transferred strand of the adaptor to the 5′ ends of the tagmented DNA. Tn5 was removed by adding 1% SDS and incubating for 5 minutes at 25° C.
In the workflow for experiments C and D: DNA was first tagmented, appending the transferred strand of the adaptor to the 5′ ends of the tagmented DNA.
For each of these experiments, the tagmentation buffer included water, 4% DMF, 2 mM magnesium acetate, and 4 mM tris acetate salt, pH 7.6. As such Mg^2+ was the divalent cation cofactor.
In the workflow for experiment B: DNA was first tagmented, appending the transferred strand of the adaptor to the 5′ ends of the tagmented DNA. […] In experiment B, the transposase removal fluid included 140 mM Tris, pH 8.8, 100 mM KCl, and 1.8 mM EDTA. […] The sample was processed under Extension-Ligation and PCR-cycling conditions with a ligase, non-strand displacing polymerase and Q5 polymerase in a buffer base with 2.4 mM Magnesium.
In the workflow for experiment A: DNA was first tagmented using the Mg^2+ tagmentation buffer described in this example, appending the transferred strand of the adaptor to the 5′ ends of the tagmented DNA. Tn5 was removed by adding 1% SDS and incubating for 5 minutes at 25° C.
In the workflow for experiment D: DNA was first tagmented using the Mg^2+ tagmentation buffer described in this example, appending the transferred strand of the adaptor to the 5′ ends of the tagmented DNA.
In the workflow for experiment A: DNA was first tagmented, appending the transferred strand of the adaptor to the 5′ ends of the tagmented DNA. […] In experiment A, the transposase removal fluid included 500 mM Tris, pH 8.6, 100 mM NaCl, and 15 mM 2-hydroxy-4-oxo-4-thiophen-2-yl-but-2-enoic acid integrase inhibitor. […]

## CCCCCCCCCCCCOS(=O)(=O)[O-].[Na+] [SDS, sodium dodecyl sulfate]
Example 1, SDS treatment versus water and high temperature heating of PCR, Mg2+ cofactor, sulfate
  Tn5 removal from the tagmented product complex (yield and insert size profile, FIG. 4): more effective than heating alone; also recorded: more effective in removing Tn5 from the tagmented product complex than the high temperature heating used in PCR

## O=C(O)CN(CCN(CC(=O)O)CC(=O)O)CC(=O)O [EDTA, ethylenediaminetetraacetic acid]
Example 2, supernatant discarded, 100 mM Tris-HCl pH 8.6, 100 mM NaCl, 0.6 mM EDTA, 1 minute at 60° C., compared with 1% SDS
  Dissociation of Tn5 enzyme from tagmented DNA complex (yield and insert size profile, FIG. 5): sufficient to replace SDS as a reagent for dissociating the Tn5 enzyme from a tagmented DNA complex
Example 3, applied directly without removing supernatant, 100 mM Tris-HCl pH 8.6, 100 mM NaCl, 6 mM EDTA, 1 minute at 60° C.
  Dissociation of Tn5 from tagmented DNA complex (size profile and yield, FIG. 6): can effectively dissociate Tn5 from the tagmented DNA complex
Example 4, 140 mM Tris pH 8.8, 100 mM KCl, 1.8 mM EDTA, 1 minute at 60° C., extension-ligation and PCR added directly with 2.4 mM magnesium
  Dissociation of Tn5 from tagmented DNA complex (size profile and yield, FIG. 7): can dissociate Tn5 from the tagmented DNA complex

From US20250197846A1, “TAGMENTATION WORKFLOW” (ILLUMINA, INC., priority 2022, published 2025)
